Drawing on patent US8530487B1 (priority 2009, dated 2013), this text covers IC50 for 70 compounds.

The experiment concerns the target human TRPA1 (Homo sapiens, UniProt O75762). As to the kind of experiment: cell-based.

Structures are written as SMILES. pIC50: −log10 of the molar value. Where two headings read alike, the source gives them in different places. Bounds are passed on as bounds.

human TRPA1, sequence (O75762 whole entry): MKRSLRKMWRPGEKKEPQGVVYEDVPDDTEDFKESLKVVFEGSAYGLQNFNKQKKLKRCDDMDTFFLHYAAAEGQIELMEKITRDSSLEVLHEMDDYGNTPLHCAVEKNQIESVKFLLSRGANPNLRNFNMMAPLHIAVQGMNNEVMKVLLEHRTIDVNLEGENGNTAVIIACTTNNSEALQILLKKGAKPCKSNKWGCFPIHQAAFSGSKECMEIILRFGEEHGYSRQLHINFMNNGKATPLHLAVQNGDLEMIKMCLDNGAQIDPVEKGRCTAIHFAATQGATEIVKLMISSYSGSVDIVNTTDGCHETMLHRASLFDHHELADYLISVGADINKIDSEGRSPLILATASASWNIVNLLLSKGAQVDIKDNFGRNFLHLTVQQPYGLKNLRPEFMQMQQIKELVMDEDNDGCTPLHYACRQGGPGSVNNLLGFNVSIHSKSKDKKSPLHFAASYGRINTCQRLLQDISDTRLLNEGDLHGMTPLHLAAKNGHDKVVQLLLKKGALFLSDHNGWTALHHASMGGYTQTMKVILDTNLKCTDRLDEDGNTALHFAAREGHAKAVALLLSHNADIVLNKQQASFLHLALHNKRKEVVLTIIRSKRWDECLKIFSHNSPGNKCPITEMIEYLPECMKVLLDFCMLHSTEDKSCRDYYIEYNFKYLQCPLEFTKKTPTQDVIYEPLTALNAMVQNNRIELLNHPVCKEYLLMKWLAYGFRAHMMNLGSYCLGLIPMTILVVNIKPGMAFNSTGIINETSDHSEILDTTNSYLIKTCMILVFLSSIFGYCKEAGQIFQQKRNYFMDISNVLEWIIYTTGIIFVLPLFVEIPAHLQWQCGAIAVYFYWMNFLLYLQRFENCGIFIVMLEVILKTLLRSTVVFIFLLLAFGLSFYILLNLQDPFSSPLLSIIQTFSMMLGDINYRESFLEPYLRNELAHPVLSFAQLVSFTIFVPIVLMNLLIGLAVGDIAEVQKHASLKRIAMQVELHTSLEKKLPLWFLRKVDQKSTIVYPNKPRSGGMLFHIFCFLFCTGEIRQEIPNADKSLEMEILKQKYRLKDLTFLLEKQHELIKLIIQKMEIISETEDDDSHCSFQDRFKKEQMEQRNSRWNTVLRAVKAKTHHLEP

Take `C=CCOc1cc(F)cc(C2NC(=O)NC3=C2C(=O)c2ccccc23)c1` (stereo not shown) [Compound 403]: the pIC50 (in general, the IC50 on a negative log10 scale, so that one unit is a factor of ten) (read-out: Activity (IC50)) is over 7.00. Turning to `C=CCOc1cccc(C2NC(=O)N(Cc3cccnc3)C3=C2C(=O)c2ccccc23)c1` (stereo not shown) [Compound 634], the pIC50 (read-out: Activity (IC50)) was over 7.00. For the compound `O=C1C2=C(NC(=S)NC2c2ccccc2)c2ccc(O)cc21` (stereo not shown) [Compound 203], the pIC50 was under 6.00. Take `CCCC(O)c1cccc(C2NC(=O)NC3=C2C(=O)c2cccnc23)c1` (stereo not shown) [Compound 908]: the pIC50 (read-out: Activity (IC50)) is 6.30 to 7.00. In the case of `CCOc1cccc(C2NC(=O)NC3=C2C(=O)c2cccnc23)c1` (stereo not shown) [Compound 902], the pIC50 (read-out: Activity (IC50)) was 6.30 to 7.00.

Consider `CCOc1cccc(C2NC(=O)N(C)C3=C2C(=O)c2ccccc23)c1` (stereo not shown) [Compound 603], for which the pIC50 (read-out: Activity (IC50)) is over 7.00.

With `O=C1NC2=C(C(=O)c3ccccc32)C(c2cccc(OCC(F)(F)F)c2)N1` (stereo not shown) [Compound 413], under “read-out: Activity (IC50)”, the pIC50 was 6.30 to 7.00. Still for that read-out and setting: in the case of `C=CCOc1cccc(C2NC(=O)NC3=C2C(=O)c2ccccc23)c1C` (stereo not shown) [Compound 421] it was 6.30 to 7.00; in that of `CN1C(=NC#N)NC2=C(C(=O)c3ccccc32)C1c1cccc(OCC2CC2)c1` (stereo not shown) [Compound 952], under 6.00; in that of `CN1C(=S)NC2=C(C(=O)c3ccccc32)C1c1ccccc1` (stereo not shown) [Compound 303], under 6.00. For `CCOc1cccc(C2NC(=O)N(Cc3ccncc3)C3=C2C(=O)c2ccccc23)c1` (stereo not shown) [Compound 613], the pIC50 (read-out: Activity (IC50)) was under 6.00.

Turning to `COc1ccc(OC)c(C2NC(=O)NC3=C2C(=O)c2ccccc23)c1` (stereo not shown) [Compound 441], the pIC50 (read-out: Activity (IC50)) was under 6.00. On the same count and under the same terms, under `C=CCOc1cccc(C2NC(=O)NC3=C2C(=O)c2ccccc23)c1Cl` (stereo not shown) [Compound 640] stands over 7.00. As to `CCOc1cccc(C2NC(=O)N(Cc3ccc(F)cc3)C3=C2C(=O)c2ccccc23)c1` (stereo not shown) [Compound 607], where the note is “read-out: Activity (IC50)”, the pIC50 was 6.30 to 7.00. As for `COCCOc1cccc(C2NC(=O)NC3=C2C(=O)c2ccccc23)c1` (stereo not shown) [Compound 462], the pIC50 (read-out: Activity (IC50)) is 6.30 to 7.00.

Consider `C=CCOc1cccc(C2NC(=NC#N)N(Cc3ccccc3)C3=C2C(=O)c2ccccc23)c1` (stereo not shown) [Compound 961], for which the pIC50 (read-out: Activity (IC50)) was under 6.00.

As to `CCOc1ccc(F)c(C2NC(=O)NC3=C2C(=O)c2ccccc23)c1F` (stereo not shown) [Compound 420], the pIC50 (read-out: Activity (IC50)) is 6.30 to 7.00. Still for that read-out and setting: in the case of `O=C1NC2=C(C(=O)c3ccccc32)C(c2cccc(Cl)c2)N1` (stereo not shown) [Compound 431] it was under 6.00; in that of `CN1C(=NC#N)NC2=C(C(=O)c3c(Cl)cccc32)C1c1cccc(OCC2CC2)c1` (stereo not shown) [Compound 953], under 6.00; in that of `O=C1NC2=C(C(=O)c3ccccc32)C(c2c(Cl)cccc2Cl)N1` (stereo not shown) [Compound 449], under 6.00. For `C=CCC(F)c1cccc(C2NC(=O)NC3=C2C(=O)c2ccccc23)c1` (stereo not shown) [Compound 402], the pIC50 (read-out: Activity (IC50)) was over 7.00. Same read-out and setting: in the case of `C=CCOc1cccc(C2NC(=O)N(Cc3ccc(F)cc3)C3=C2C(=O)c2ccccc23)c1` (stereo not shown) [Compound 633] it was over 7.00. Turning to `C=CCOc1cccc(C2NC(=O)NC3=C2C(=O)c2ccccc23)c1O` (stereo not shown) [Compound 456], under “read-out: Activity (IC50)”, the pIC50 was under 6.00. As to `COc1ccccc1C1NC(=S)NC2=C1C(=O)c1ccccc12` (stereo not shown) [Compound 40], the pIC50 is under 6.00.

For the compound `CCOc1cncc(C2NC(=O)NC3=C2C(=O)c2ccccc23)c1` (stereo not shown) [Compound 503], the pIC50 (read-out: Activity (IC50)) is under 6.00. For the compound `O=C1NC2=C(C(=O)c3ccccc32)C(c2ccc(Cl)cc2)N1` (stereo not shown) [Compound 442], the pIC50 (read-out: Activity (IC50)) is under 6.00.

Take `O=C1NC2=C(C(=O)c3ccccc32)C(c2cccc(OCC3CC3)c2Cl)N1` (stereo not shown) [Compound 419]: the pIC50 (read-out: Activity (IC50)) is 6.30 to 7.00. As for `O=C1NC2=C(C(=O)c3c(O)cccc32)C(c2cc(O)ccc2Br)N1` (stereo not shown) [Compound 104], the pIC50 (read-out: Activity (IC50)) is under 6.00.

Consider `CCCOc1cccc(C2NC(=O)NC3=C2C(=O)c2cccnc23)c1` (stereo not shown) [Compound 904], for which, where the note is “read-out: Activity (IC50)”, the pIC50 was over 7.00. On the same count and under the same terms, under `O=C1NC2=C(C(=O)c3cc(O)ccc32)C(c2cc(O)ccc2Br)N1` (stereo not shown) [Compound 105] stands under 6.00; under `O=C1NC2=C(C(=O)c3ccccc32)C(c2cc(C(F)(F)F)ccc2Cl)N1` (stereo not shown) [Compound 448], under 6.00; under `O=C1NC2=C(C(=O)c3ccccc32)C(c2cccc3c2OC(F)(F)O3)N1` (stereo not shown) [Compound 440], under 6.00. With `O=C1NC2=C(C(=O)c3ccc(O)cc32)C(c2cc(O)ccc2Br)N1` (stereo not shown) [Compound 106], where the note is “read-out: Activity (IC50)”, the negative logarithm of the IC50 (pIC50) was under 6.00.

On to `CCCSc1cccc(C2NC(=O)NC3=C2C(=O)c2cccnc23)c1` (stereo not shown) [Compound 906], for which, for the setting “read-out: Activity (IC50)”, the pIC50 was 6.30 to 7.00. Still for that read-out and setting: under `CCCOc1ccc(F)c(C2NC(=O)NC3=C2C(=O)c2cccnc23)c1F` (stereo not shown) [Compound 912] stands over 7.00; under `O=C1NC2=C(C(=O)c3ccccc32)C(c2ccccc2F)N1` (stereo not shown) [Compound 447], under 6.00; under `C=CCOc1ccc(Cl)c(C2NC(=O)NC3=C2C(=O)c2ccccc23)c1` (stereo not shown) [Compound 637], 6.30 to 7.00. On to `CN1C(=S)NC2=C(C(=O)c3ccccc32)C1c1cccc(C#N)c1` (stereo not shown) [Compound 309], for which the pIC50 (read-out: Activity (IC50)) is under 6.00.

With `CCCOc1cccc(C2NC(=O)N(CC#N)C3=C2C(=O)c2ccccc23)c1` (stereo not shown) [Compound 615], for the setting “read-out: Activity (IC50)”, the pIC50 was over 7.00. Still for that read-out and setting: under `O=C1NC2=C(C(=O)c3cc(Cl)ccc32)C(c2cc(O)ccc2Br)N1` (stereo not shown) [Compound 103] stands under 6.00; under `O=C1NC2=C(C(=O)c3ccccc32)C(c2cccc(OCC3CC3)c2)N1` (stereo not shown) [Compound 422], 6.30 to 7.00. Turning to `C=CCOc1cccc(C2NC(=O)NC3=C2C(=O)c2ccccc23)c1C(F)(F)F` (stereo not shown) [Compound 642], the pIC50 (read-out: Activity (IC50)) is under 6.00. Turning to `Cc1ccc2c(c1)C(=O)C1=C2NC(=O)NC1c1cc(O)ccc1Br` (stereo not shown) [Compound 107], the pIC50 (read-out: Activity (IC50)) is 6.00 to 6.30.

With `COc1cccc(C2NC(=O)NC3=C2C(=O)c2ccccc23)c1Cl` (stereo not shown) [Compound 428], the pIC50 (read-out: Activity (IC50)) was under 6.00. As for `CCOC(=O)CN1C(=O)NC(c2cccc(OCC)c2)C2=C1c1ccccc1C2=O` (stereo not shown) [Compound 608], under “read-out: Activity (IC50)”, the pIC50 was over 7.00. On to `N#CN=C1NC2=C(C(=O)c3ccccc32)C(c2cccc(OCC3CC3)c2Cl)N1` (stereo not shown) [Compound 957], for which the pIC50 (read-out: Activity (IC50)) is under 6.00. Consider `C=CCOc1cccc(C2NC(=NC#N)NC3=C2C(=O)c2ccccc23)c1` (stereo not shown) [Compound 950], for which the pIC50 (read-out: Activity (IC50)) is under 6.00. The same measure, in the same setting: in the case of `CCOc1cccc(C2NC(=O)NC3=C2C(=O)c2cccnc23)c1F` (stereo not shown) [Compound 901] it was 6.30 to 7.00. As for `CCOc1cccc(C2NC(=O)NC3=C2C(=O)c2ccccc23)c1F` (stereo not shown) [Compound 616], the pIC50 (read-out: Activity (IC50)) was over 7.00. `O=C1NC2=C(C(=O)c3ccccc32)C(c2ccccc2O)N1` (stereo not shown) [Compound 435]: the pIC50 (read-out: Activity (IC50)) is under 6.00.

In the case of `CCOc1cccc(C2NC(=O)NC3=C2C(=O)c2ccccc23)c1F` (stereo not shown) [Compound 409], the pIC50 (read-out: Activity (IC50)) is over 7.00. In the case of `C=CCC(F)c1cccc(C2NC(=O)NC3=C2C(=O)c2cccnc23)c1` (stereo not shown) [Compound 905], where the note is “read-out: Activity (IC50)”, the negative-log IC50 (pIC50) is over 7.00. Regarding `C=CCOc1cccc(C2NC(=S)N(C)C3=C2C(=O)c2ccccc23)c1` (stereo not shown) [Compound 306], the pIC50 (read-out: Activity (IC50)) was over 7.00.

As to `CCCC(F)c1cccc(C2NC(=O)NC3=C2C(=O)c2cccnc23)c1` (stereo not shown) [Compound 907], where the note is “read-out: Activity (IC50)”, the pIC50 was over 7.00. On to `CN1C(=S)NC(c2ccccc2)C2=C1c1cccc(O)c1C2=O` (stereo not shown) [Compound 313], for which, under “read-out: Activity (IC50)”, the pIC50 is under 6.00. On to `O=C1NC2=C(C(=O)c3ccccc32)C(c2cccc(Cl)c2Cl)N1` (stereo not shown) [Compound 446], for which, for the setting “read-out: Activity (IC50)”, the pIC50 is under 6.00.

As to `CCOc1cccc(C2NC(=O)N(CC)C3=C2C(=O)c2ccccc23)c1` (stereo not shown) [Compound 604], where the note is “read-out: Activity (IC50)”, the pIC50 is over 7.00. Consider `C=CCOc1cccc(C2NC(=O)N(Cc3ccccn3)C3=C2C(=O)c2ccccc23)c1` (stereo not shown) [Compound 636], for which the pIC50 (read-out: Activity (IC50)) was 6.30 to 7.00. `CC(C)COc1cccc(C2NC(=NC#N)NC3=C2C(=O)c2ccccc23)c1` (stereo not shown) [Compound 959]: the pIC50 (read-out: Activity (IC50)) was under 6.00.

As for `O=C1NC2=C(C(=O)c3ccccc32)C(c2cccc(OC(F)(F)C(F)F)c2)N1` (stereo not shown) [Compound 451], the negative-log IC50 (pIC50) (read-out: Activity (IC50)) was under 6.00. The same measure, in the same setting: under `COc1ccc(Br)c(C2NC(=O)NC3=C2C(=O)c2ccccc23)c1` (stereo not shown) [Compound 433] stands under 6.00. Consider `COc1cccc(C2NC(=O)N(C)C3=C2C(=O)c2ccccc23)c1` (stereo not shown) [Compound 622], for which the pIC50 (read-out: Activity (IC50)) is 6.30 to 7.00. `CCCCc1cccc(C2NC(=O)NC3=C2C(=O)c2ccccc23)c1` (stereo not shown) [Compound 427]: the pIC50 (read-out: Activity (IC50)) was 6.00 to 6.30. In the case of `CN(C)c1cccc(C2NC(=O)NC3=C2C(=O)c2ccccc23)c1` (stereo not shown) [Compound 445], the pIC50 (read-out: Activity (IC50)) is under 6.00.

With `CCOc1cccc(C2NC(=S)NC3=C2C(=O)c2ccccc23)c1` (stereo not shown) [Compound 310], the pIC50 (read-out: Activity (IC50)) was over 7.00. For `C=CCOc1cccc(C2NC(=O)NC3=C2C(=O)c2ccccc23)c1` (stereo not shown) [Compound 405], for the setting “read-out: Activity (IC50)”, the pIC50 is over 7.00. In the case of `COCc1cccc(C2NC(=O)NC3=C2C(=O)c2ccccc23)c1` (stereo not shown) [Compound 453], the pIC50 (read-out: Activity (IC50)) was under 6.00. Consider `CCOc1cccc(C2NC(=O)N(CC#N)C3=C2C(=O)c2ccccc23)c1F` (stereo not shown) [Compound 617], for which, under “read-out: Activity (IC50)”, the pIC50 is over 7.00. On to `COc1ccc(F)c(C2NC(=O)NC3=C2C(=O)c2ccccc23)c1` (stereo not shown) [Compound 432], for which the pIC50 (read-out: Activity (IC50)) is under 6.00.

Regarding `CN1C(=O)NC(c2cccc(C#N)c2)C2=C1c1ccccc1C2=O` (stereo not shown) [Compound 644], the pIC50 (read-out: Activity (IC50)) was under 6.00.
